pEC50: −log10 of the molar value.
How the values were obtained:
Format in all cases: cell-based
[1] = system: NCI-H2052 mesothelioma cell line; experiment: Mesothelioma cell line proliferation assay, NCI-H2052; conditions: NCI-H2052, 6 days with compound, cell viability by ATPlite
Protocol: (§1) Mesothelioma cell lines, NCI-H226 and NCI-H2052 (all sourced from the ATCC cell culture collection) are plated in 96-well plates (Corning® 96 Well White Polystyrene Microplate clear flat bottom, white polystyrene (TC-Treated)), at 1500 cells/well in full medium (RPMI 1640 ATCC modification with L-glutamine, HEPES, Phenol Red, Sodium Pyruvate, High glucose, Low sodium bicarbonate and 10% fetal bovine serum). Cells are incubated overnight at 37° C. in an incubator with 5% CO2. Then compounds, dissolved in DMSO, are added in dose-response. Cells are incubated with compound dilutions for another 6 days at 37° C. in an incubator with 5% CO2. Cell viability is quantitated using the ATPlite kit (Perkin-Elmer) and the luminescence is read-out using an Envision instrument (Perkin-Elmer). The amount of relative light units produced using the ATPlite kit is used to calculated percent of inhibition.
(§2) The activities of example compounds tested are depicted in the table below. The activity ranges A, B and C refer to EC50 values in the mesothelioma cell line proliferation assay as described as follows: “A”: EC50 <1 μM; “B” : 1 μM EC50 ≤10 μM and “C” : EC50 >10 μM. NT: not tested.

[2] = system: NCI-H226 mesothelioma cell line; experiment: Mesothelioma cell line proliferation assay, NCI-H226; conditions: NCI-H226, 6 days with compound, cell viability by ATPlite
Protocol: as §1, §2

[3] = system: YAP/TAZ-TEAD transcription; experiment: Reporter gene assay for measuring the inhibition of YAP/TAZ-TEAD transcription (TEAD-responsive element luciferase reporter in Hek293T cells); conditions: Hek293T cells transiently transfected with TEAD-responsive element luciferase reporter, 24 hours incubation
Outline: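 Hek293T cells transiently transfected with TEAD-responsive luciferase reporter, exposed to compound for 24 h at 37° C/5% CO2, then read by luminescence. Percent inhibition normalized to vehicle (0%) and positive control inhibitor (100%); EC50 reported as activity ranges.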

C=CC(=O)NCC1CN(c2cccc(C(F)(F)F)c2)c2ccnn2C1 (single isomer, unassigned) [Cpd. No. 003-En1, (R)- or (S)-N-((4-(3-(trifluoromethyl)phenyl)-4,5,6,7-tetrahydropyrazolo[1,5-a]pyrimidin-6-yl)methyl)acrylamide]
pEC50 ([1]; Homo sapiens, NCI-H2052, 144 h): < 5.00
pEC50 ([2]; Homo sapiens, NCI-H226, 144 h): 5.00 to 6.00

C=CC(=O)NCC1CN(c2ccc(C(F)(F)F)cn2)c2ccnn2C1 (single isomer, unassigned) [Cpd. No. 008-En1, (R)- or (S)-N-((4-(5-(trifluoromethyl)pyridin-2-yl)-4,5,6,7-tetrahydropyrazolo[1,5-a]pyrimidin-6-yl)methyl)acrylamide]
pEC50 ([3]; Homo sapiens, HEK-293T, 24 h): > 6.00
pEC50 ([1]; Homo sapiens, NCI-H2052, 144 h): > 6.00
pEC50 ([2]; Homo sapiens, NCI-H226, 144 h): > 6.00

C=CC(=O)NCC1CN(c2ccc(C(F)(F)F)cn2)c2ccnn2C1 (single isomer, unassigned) [Cpd. No. 008-En2, (R)- or (S)-N-((4-(5-(trifluoromethyl)pyridin-2-yl)-4,5,6,7-tetrahydropyrazolo[1,5-a]pyrimidin-6-yl)methyl)acrylamide]
pEC50 [3]: > 6.00
pEC50 [1]: > 6.00
pEC50 [2]: > 6.00

C=CC(=O)NCC1CN(c2ccc(OC(F)(F)F)cc2)c2ccnn2C1 (single isomer, unassigned) [Cpd. No. 011-En1, (R)- or (S)-N-((4-(4-(trifluoromethoxy)phenyl)-4,5,6,7-tetrahydropyrazolo[1,5-a]pyrimidin-6-yl)methyl)acrylamide]
pEC50 [3]: > 6.00
pEC50 [1]: > 6.00
pEC50 [2]: > 6.00

C=CC(=O)NCC1CN(c2ccc(OC(F)(F)F)cc2)c2ccnn2C1 (single isomer, unassigned) [Cpd. No. 011-En2, (R)- or (S)-N-((4-(4-(trifluoromethoxy)phenyl)-4,5,6,7-tetrahydropyrazolo[1,5-a]pyrimidin-6-yl)methyl)acrylamide]
pEC50 [3]: > 6.00
pEC50 [1]: < 5.00
pEC50 [2]: > 6.00

C=CC(=O)NCC1CN(c2ccc(OC(F)(F)F)c(F)c2)c2ccnn2C1 (single isomer, unassigned) [Cpd. No. 018-En1, (R)- or (S)-N-((4-(3-fluoro-4-(trifluoromethoxy)phenyl)-4,5,6,7-tetrahydropyrazolo[1,5-a]pyrimidin-6-yl)methyl)acrylamide]
pEC50 ([1]; Homo sapiens, NCI-H2052, 144 h): > 6.00
pEC50 ([2]; Homo sapiens, NCI-H226, 144 h): > 6.00

C=CC(=O)NCC1CN(c2ccc(OC(F)(F)F)c(F)c2)c2ccnn2C1 (single isomer, unassigned) [Cpd. No. 018-En2, (R)- or (S)-N-((4-(3-fluoro-4-(trifluoromethoxy)phenyl)-4,5,6,7-tetrahydropyrazolo[1,5-a]pyrimidin-6-yl)methyl)acrylamide]
pEC50 [1]: > 6.00
pEC50 [2]: > 6.00

C=CC(=O)NCC1CN(c2ccc(Br)cc2)c2ccnn2C1 (single isomer, unassigned) [Cpd. No. 021-En2, (R)- or (S)-N-((4-(4-bromophenyl)-4,5,6,7-tetrahydropyrazolo[1,5-a]pyrimidin-6-yl)methyl)acrylamide]
pEC50 ([1]; Homo sapiens, NCI-H2052, 144 h): > 6.00
pEC50 ([2]; Homo sapiens, NCI-H226, 144 h): > 6.00

C=CC(=O)NCC1CN(c2ccc(OC(F)(F)F)cc2)c2cc(C(F)(F)F)nn2C1 (single isomer, unassigned) [Cpd. No. 035-En2, (R)- or (S)-N-((4-(4-(trifluoromethoxy)phenyl)-2-(trifluoromethyl)-4,5,6,7-tetrahydropyrazolo[1,5-a]pyrimidin-6-yl)methyl)acrylamide]
pEC50 ([1]; Homo sapiens, NCI-H2052, 144 h): 5.00 to 6.00
pEC50 ([2]; Homo sapiens, NCI-H226, 144 h): > 6.00

C=CC(=O)NCC1CN(CC2CCCCC2)c2ccnn2C1 (single isomer, unassigned) [Cpd. No. 055-En2, (R)- or (S)-N-((4-(cyclohexylmethyl)-4,5,6,7-tetrahydropyrazolo[1,5-a]pyrimidin-6-yl)-methyl)acrylamide]
pEC50 ([1]; Homo sapiens, NCI-H2052, 144 h): < 5.00
pEC50 ([2]; Homo sapiens, NCI-H226, 144 h): > 6.00

C=CC(=O)NC1CN(c2ccc(C(F)(F)F)c(F)c2)c2ccnn2C1 (single isomer, unassigned) [Cpd. No. 064-En1, (R)- or (S)-N-(4-(3-fluoro-4-(trifluoromethyl)phenyl)-4,5,6,7-tetrahydropyrazolo[1,5-a]pyrimidin-6-yl)acrylamide]
pEC50 ([1]; Homo sapiens, NCI-H2052, 144 h): > 6.00
pEC50 ([2]; Homo sapiens, NCI-H226, 144 h): > 6.00

CS(=O)(=O)NC1CN(c2ccc(C(F)(F)F)cc2)c2ccnn2C1 (centres unmarked) [Cpd. No. 067, N-(4-(4-(trifluoromethyl)phenyl)-4,5,6,7-tetrahydropyrazolo[1,5-a]pyrimidin-6-yl)methanesulfonamide]
pEC50 ([3]; Homo sapiens, HEK-293T, 24 h): < 4.70

CCC(=O)NCC1Cc2c(cnn2C)N(c2ccc(C(F)(F)F)cc2)C1 (centres unmarked) [Cpd. No. 072, N-((1-methyl-4-(4-(trifluoromethyl)phenyl)-4,5,6,7-tetrahydro-1H-pyrazolo[4,3-b]pyridin-6-yl)methyl)propionamide]
pEC50 ([3]; Homo sapiens, HEK-293T, 24 h): < 4.70

CCC(=O)NCC1Cc2nn(C)cc2N(c2ccc(C(F)(F)F)cc2)C1 (centres unmarked) [Cpd. No. 073, N-((2-methyl-4-(4-(trifluoromethyl)phenyl)-4,5,6,7-tetrahydro-2H-pyrazolo[4,3-b]pyridin-6-yl)methyl)propionamide]
pEC50 ([3]; Homo sapiens, HEK-293T, 24 h): > 6.00

CCC(=O)NCC1Cc2c(cnn2C)N(c2ccc(OC(F)(F)F)cc2)C1 (centres unmarked) [Cpd. No. 074, N-((1-methyl-4-(4-(trifluoromethoxy)phenyl)-4,5,6,7-tetrahydro-1H-pyrazolo[4,3-b]pyridin-6-yl)methyl)propionamide]
pEC50 ([3]; Homo sapiens, HEK-293T, 24 h): < 4.70

CCC(=O)NCC1Cc2nn(C)cc2N(c2ccc(OC(F)(F)F)cc2)C1 (centres unmarked) [Cpd. No. 075, N-((2-methyl-4-(4-(trifluoromethoxy)phenyl)-4,5,6,7-tetrahydro-2H-pyrazolo[4,3-b]pyridin-6-yl)methyl)propionamide]
pEC50 ([3]; Homo sapiens, HEK-293T, 24 h): 4.70 to 6.00

Cn1ncc2c1CC(CNS(C)(=O)=O)CN2c1ccc(C(F)(F)F)cc1 (centres unmarked) [Cpd. No. 076, N-((1-methyl-4-(4-(trifluoromethyl)phenyl)-4,5,6,7-tetrahydro-1H-pyrazolo[4,3-b]pyridin-6-yl)methyl)methanesulfonamide]
pEC50 ([3]; Homo sapiens, HEK-293T, 24 h): < 4.70

Cn1cc2c(n1)CC(CNS(C)(=O)=O)CN2c1ccc(C(F)(F)F)cc1 (centres unmarked) [Cpd. No. 077, N-((2-methyl-4-(4-(trifluoromethyl)phenyl)-4,5,6,7-tetrahydro-2H-pyrazolo[4,3-b]pyridin-6-yl)methyl)methanesulfonamide]
pEC50 ([3]; Homo sapiens, HEK-293T, 24 h): 4.70 to 6.00

Cn1ncc2c1CC(CNS(C)(=O)=O)CN2c1ccc(OC(F)(F)F)cc1 (centres unmarked) [Cpd. No. 078, N-((1-methyl-4-(4-(trifluoromethoxy)phenyl)-4,5,6,7-tetrahydro-1H-pyrazolo[4,3-b]pyridin-6-yl)methyl)methanesulfonamide]
pEC50 ([3]; Homo sapiens, HEK-293T, 24 h): < 4.70

Cn1cc2c(n1)CC(CNS(C)(=O)=O)CN2c1ccc(OC(F)(F)F)cc1 (centres unmarked) [Cpd. No. 079, N-((2-methyl-4-(4-(trifluoromethoxy)phenyl)-4,5,6,7-tetrahydro-2H-pyrazolo[4,3-b]pyridin-6-yl)methyl)methanesulfonamide]
pEC50 ([3]; Homo sapiens, HEK-293T, 24 h): 4.70 to 6.00

CCC(=O)NCC1Cc2c(cnn2Cc2cccc(C(N)=O)c2)N(c2ccc(C(F)(F)F)cc2)C1 (centres unmarked) [Cpd. No. 082, 3-((6-(propionamide-methyl)-4-(4-(trifluoromethyl)phenyl)-4,5,6,7-tetrahydro-1H-pyrazolo[4,3-b]pyridin-1-yl)methyl)benzamide]
pEC50 [3]: > 6.00

CCC(=O)NCC1Cc2nn(Cc3cccc(C(N)=O)c3)cc2N(c2ccc(C(F)(F)F)cc2)C1 (centres unmarked) [Cpd. No. 083, 3-((6-(propionamide-methyl)-4-(4-(trifluoromethyl)phenyl)-4,5,6,7-tetrahydro-2H-pyrazolo[4,3-b]pyridin-2-yl)methyl)benzamide]
pEC50 [3]: < 4.70

C[C@H](NC(=O)NCC1CN(c2ccc(C(F)(F)F)cc2)c2ccnn2C1)c1ccccn1 (stereo partly drawn) [Cpd. No. 091, 1-((S)-1-(pyridin-2-yl)ethyl)-3-((4-(4-(trifluoromethyl)phenyl)-4,5,6,7-tetrahydropyrazolo[1,5-a]pyrimidin-6-yl)methyl)urea]
pEC50 ([3]; Homo sapiens, HEK-293T, 24 h): < 4.70

CNC(=O)C1CN(c2ccc(C(F)(F)F)cc2)c2ccnn2C1 (centres unmarked) [Cpd. No. 092, N-methyl-4-(4-(trifluoromethyl)phenyl)-4,5,6,7-tetrahydropyrazolo[1,5-a]pyrimidine-6-carboxamide]
pEC50 ([3]; Homo sapiens, HEK-293T, 24 h): < 4.70

CS(=O)(=O)NC(=O)C1CN(c2ccc(C(F)(F)F)cc2)c2ccnn2C1 (centres unmarked) [Cpd. No. 093, N-(methylsulfonyl)-4-(4-(trifluoromethyl)phenyl)-4,5,6,7-tetrahydropyrazolo[1,5-a]pyrimidine-6-carboxamide]
pEC50 ([3]; Homo sapiens, HEK-293T, 24 h): < 4.70

C=CC(=O)NCC1CN(c2ccc(C(F)(F)F)cc2)c2cnc(C(F)(F)F)n2C1 (centres unmarked) [Cpd. No. 094, N-((6-(trifluoromethyl)-1-(4-(trifluoromethyl)phenyl)-1,2,3,4-tetrahydroimidazo[1,5-a]pyrimidin-3-yl)methyl)acrylamide]
pEC50 ([3]; Homo sapiens, HEK-293T, 24 h): > 6.00

Source: patent publication US20230279016A1, “Tetrahydropyrazolopyrimidines and Related Analogs for Inhibiting YAP/TAZ-TEAD” (THE KATHOLIEKE UNIVERSITEIT LEUVEN, priority 2021, published 2023)
